Experimental data taken from patent publication US11420943B2, “Peptide derivatives and therapeutic activity thereof” (FLAMMA S.P.A., priority 2017, dated 2022).
Where two headings read alike, the source gives them in different places. Where a SMILES comes first, the peptide text is derived from it. [ ]: non-standard residue; d: D form. Aib = CC(C)(N)C(=O)O

Experiments:
[1] = reported in WO2011/080139, same test; cited from earlier work
[2] = Carbonyl-quenching activity towards HNE in vitro (residual HNE by reverse-phase chromatography); type: biochemical; settings: for ACTIVITY (CARNOSINE UNIT) 1 h / HNE CONSUMPTION (%) 1 h: 1 h incubation; for ACTIVITY (CARNOSINE UNIT) 1 h / HNE CONSUMPTION (%) 1 h / ACTIVITY (CARNOSINE UNIT) 3 h / HNE CONSUMPTION (%) 3 h: HNE 50 μM, compound 1 mM, phosphate buffer 10 mM, pH 7.4, 37° C.; for ACTIVITY (CARNOSINE UNIT) 3 h / HNE CONSUMPTION (%) 3 h: 3 h incubation
Description: (§1) The pharmacological activity of the compounds according to the invention was determined in vitro by evaluating their carbonyl-quenching activity towards 4-hydroxy nonenal (HNE), which is known for its involvement in numerous disorders. Said activity was compared with that of L-carnosine, a compound known as a carbonyl quencher in vitro but having limited metabolic stability caused by serum carnosinase. The metabolic stability of a particularly interesting compound was also evaluated in human serum after 1 and 2 hours.
The activity was evaluated one and three hours after incubation, determining the residual HNE content by reverse-phase chromatography as previously described by Aldini G. et al. [Biochem Biophys Res Commun. 2002 Nov. 15; 298 (5):699-706]. The carbonyl-quenching activity is evaluated on the basis of the percentage of HNE reacted, compared with the HNE content in the absence of the molecule to be tested.

[3] = Stability in human serum (HPLC-MS recovery); type: in vitro ADME; settings: 37° C.
Description: as §1
The samples taken from each matrix, suitably treated, were analysed by HPLC-MS, obtaining recovery after 1 h and 2 h.

Compound | carbonyl-quenching activity, times greater than that of L-carnosine [1] [times] | ACTIVITY (CARNOSINE UNIT) 1 h [2] [CARNOSINE UNIT] | HNE CONSUMPTION (%) 1 h [2] [%] | ACTIVITY (CARNOSINE UNIT) 3 h [2] [CARNOSINE UNIT] | HNE CONSUMPTION (%) 3 h [2] [%] | Stability in plasma (% residual amount) 1 h ([3]; 1 h) [%] | Stability in plasma (% residual amount) 2 h ([3]; 2 h) [%] | carbonyl-quenching activity, times greater than that of L-carnosine ([2]; see Table I) [times]
NCCC(=O)N[C@H](CO)Cc1cnc[nH]1 [3-amino-N-[(1S)-2-hydroxy-1-(1H-imidazol-5-yl-methyl)ethyl]propanamide] | 1.6 |  |  |  |  |  |  | 
NCCC(=O)N[C@@H](Cc1cnc[nH]1)C(=O)O [CARNOSINE, L-carnosine, reference compound] |  | 1.00 | 17.05 ± 1.24 | 1.00 | 42.66 ± 0.89 |  |  | 
CC(C)(N)CC(=O)N[C@@H](Cc1c[nH]cn1)C(=O)O [FLM-02-ACI, N-(3-amino-3,3-dimethylpropanoyl)-L-histidine] |  | 0.02 | 0.40 ± 1.73 | 0.14 | 6.05 ± 1.66 |  |  | 
CC(C)(N)CC(=O)N[C@H](CO)Cc1c[nH]cn1 [FLM-02-OLO, (S)-3-amino-N-(1-hydroxy-3-(1H-imidazol-4-yl)propan-2-yl)-3,3-dimethylpropanamide] |  | 0.25 | 4.09 ± 2.61 | 0.24 | 10.50 ± 2.24 |  |  | 
CC(C)(CN)C(=O)N[C@@H](Cc1c[nH]cn1)C(=O)O [FLM-04-ACI, N-(3-amino-2,2-dimethylpropanoyl)-L-histidine] |  | 1.76 | 30.06 ± 4.68 | 1.51 | 64.44 ± 4.37 |  |  | 
CC(C)(CN)C(=O)N[C@H](CO)Cc1c[nH]cn1 [FLM-04-OLO, (S)-3-amino-N-(1-hydroxy-3-(1H-imidazol-4-yl)propan-2-yl)-2,2-dimethylpropanamide] |  | 3.13 | 52.14 ± 5.56 | 2.00 | 86.47 ± 2.73 | 101.78 ± 16.20 | 100.34 ± 9.46 | 3.1
CC(C)(N)C(=O)N[C@@H](Cc1c[nH]cn1)C(=O)O [FLM-05-ACI, N-(2-amino-2-methylpropanoyl)-L-histidine] (H-[Aib]-His-OH) |  | 0.33 | 5.58 ± 7.50 | 0.37 | 15.84 ± 10.65 |  |  | 
CC(C)(N)C(=O)N[C@H](CO)Cc1c[nH]cn1 [FLM-05-OLO, (S)-2-amino-N-(1-hydroxy-3-(1H-imidazol-4-yl)propan-2-yl)-2-methylpropanamide] |  | 0.38 | 6.40 ± 1.72 | 0.45 | 19.44 ± 2.36 |  |  | 
NCC(F)(F)C(=O)N[C@@H](Cc1c[nH]cn1)C(=O)O [FLM-07-ACI, N-(3-amino-2,2-difluoropropanoyl)-L-histidine] |  | 0.46 | 7.88 ± 5.41 | 0.69 | 29.42 ± 6.42 |  |  | 
NCC(F)(F)C(=O)N[C@H](CO)Cc1c[nH]cn1 [FLM-07-OLO, (S)-3-amino-2,2-difluoro-N-(1-hydroxy-3-(1H-imidazol-4-yl)propan-2-yl)propanamide] |  | 1 | 17.07 ± 1.76 | 0.82 | 34.93 ± 0.58 |  |  | 
NCC1(C(=O)N[C@@H](Cc2c[nH]cn2)C(=O)O)CC1 [FLM-09-ACI] |  | 0.81 | 13.70 ± 0.83 | 0.89 | 36.11 ± 2.87 |  |  | 
NCC1(C(=O)N[C@H](CO)Cc2c[nH]cn2)CC1 [FLM-09-OLO, (S)-1-(aminomethyl)-N-(1-hydroxy-3-(1H-imidazol-4-yl)propan-2-yl)cyclopropanecarboxamide] |  | 1.55 | 26.21 ± 1.04 | 1.45 | 59.09 ± 1.49 |  |  | 
NCC1(C(=O)N[C@@H](Cc2c[nH]cn2)C(=O)O)CCC1 [FLM-10-ACI] |  | 1.06 | 17.89 ± 1.97 | 1.11 | 45.04 ± 2.94 |  |  | 
NCC1(C(=O)N[C@H](CO)Cc2c[nH]cn2)CCC1 [FLM-10-OLO, (S)-1-(aminomethyl)-N-(1-hydroxy-3-(1H-imidazol-4-yl)propan-2-yl)cyclobutanecarboxamide] |  | 2.82 | 47.68 ± 3.02 | 2.08 | 84.63 ± 2.70 |  |  | 
NCC1(C(=O)N[C@@H](Cc2c[nH]cn2)C(=O)O)CCCC1 [FLM-11-ACI] |  | 1.41 | 23.82 ± 1.55 | 1.31 | 53.54 ± 1.10 |  |  | 
NCC1(C(=O)N[C@H](CO)Cc2c[nH]cn2)CCCC1 [FLM-11-OLO, (S)-1-(aminomethyl)-N-(1-hydroxy-3-(1H-imidazol-4-yl)propan-2-yl)cyclopentanecarboxamide] |  | 2.82 | 47.56 ± 0.69 | 2.06 | 83.90 ± 0.33 |  |  | 
CC(C)(CN)C(=O)N[C@@H](Cc1c[nH]cn1)C(=O)O [FLM-12-ACI, N-(3-amino-2,2-dimethylpropanoyl)-L-histidine] |  | 1.58 | 27.07 ± 9.77 | 1.20 | 51.35 ± 9.22 |  |  | 
Cn1cncc1C[C@@H](CO)NC(=O)C(C)(C)CN [FLM-12-OLO, (S)-3-amino-N-(1-hydroxy-3-(1-methyl-1H-imidazol-5-yl)propan-2-yl)-2,2-dimethylpropanamide] |  | 2.98 | 50.77 ± 3.84 | 1.64 | 70.08 ± 2.98 |  |  | 
CC(C)(CCN)C(=O)N[C@@H](Cc1c[nH]cn1)C(=O)O [FLM-13-ACI, N-(4-amino-2,2-dimethylbutanoyl)-L-histidine] |  | 0.69 | 11.77 ± 6.79 | 0.48 | 20.43 ± 7.94 |  |  | 
CC(C)(CCN)C(=O)N[C@H](CO)Cc1c[nH]cn1 [FLM-13-OLO, (S)-4-amino-N-(1-hydroxy-3-(1H-imidazol-4-yl)propan-2-yl)-2,2-dimethylbutanamide] |  | 0.62 | 10.54 ± 10.04 | 0.54 | 23.05 ± 12.28 |  |  | 
NCC1(C(=O)N[C@@H](Cc2c[nH]cn2)C(=O)O)CCCCC1 [FLM-14-ACI] |  | 1.71 | 29.10 ± 2.97 | 1.36 | 58.03 ± 2.37 |  |  | 
NCC1(C(=O)N[C@H](CO)Cc2c[nH]cn2)CCCCC1 [FLM-14-OLO, (S)-1-(aminomethyl)-N-(1-hydroxy-3-(1H-imidazol-4-yl)propan-2-yl)cyclohexanecarboxamide] |  | 2.84 | 48.36 ± 6.22 | 1.96 | 83.50 ± 5.85 |  |  | 
